The record followed here is patent publication US20240373850A1, “Compositions comprising resinous exudate metabolites from plants of the genus Adesmia, used to control and treat infections in plant crops; and methods for controlling infections in plant crops” (PONTIFICIA UNIVERSIDAD CATÓLICA DE VALPARAÍSO, priority 2021, published 2024).

Where “and” joins values, the source holds several entries; their conditions need not be identical. Equal entries are not always repeated. Where two headings read alike, the source gives them in different places.

The subject of assay [1] is Pseudomonas syringae pv actinidiae code 770. The assay is described as follows: Antibacterial micro-dilution test (MIC), Psa 770. It counts as cell-based. The following applies: read-out: MIC Psa 770. On the procedure: (§1) Antibacterial test of secondary metabolites isolated from the resinous exudates of Adesmia plants against the pathogen (Psa), from isolates made in Chile and Italy, also tested on other bacteria of interest, in vitro.
(§2) All strains were cultivated in Nutrient culture medium supplemented with 3% sucrose (SNA), and incubated at 27° C. The bacterial inoculum was produced in Mueller-Hinton (MH) culture medium in glass test tubes and incubated at 27° C. in an orbital shaker at 150 rpm in the dark for 24 hours. A stock solution of each molecule was prepared to obtain a concentration of 2000 mg/L, later they were diluted in a 96-well microplate with MH culture medium and thus obtain the different concentrations of […] of each molecule. The antibacterial activity of the molecules was determined by the method of micro-dilution of the substance to be tested. Four controls were used: negative control (only MH liquid culture medium inoculated with bacteria); positive control (liquid MH culture medium adding Chloramphenicol at the same concentrations tested inoculated with bacteria and in the case of the Italian strain, copper sulfate was added), negative control (1) only substances plus solvent (liquid MH culture medium plus ethanol at 1% without inoculating bacteria) and a white control (only MH liquid culture medium, without inoculating). The bacterial suspension of each of the strains was adjusted to 0.5 McFarland (1×10^8 cfu/ml), inoculating 1.5 μL per well in the microplate and subsequently incubated at 27° C. for 24 hours.
(§3) The absorbances or optical density (O.D) were converted to percentage of antibacterial inhibition (PIAB) using the following formula:
(§4) In addition, […] aliquots of each of the concentrations were swept in a petri dish to observe the presence or absence of Psa colonies after 48 hours.
On the technique in general: Dilution methods test growth across graded concentrations, often in twofold steps.

Assay [2] deals with Pseudomonas syringae pv actinidiae code 8.43. The assay is described as follows: Antibacterial micro-dilution test (MIC), Psa 8.43. Format: cell-based. Conditions: read-out: MIC Psa 8.43. On the procedure:
as §1, §2, §3, §4

The subject of the next assay is Erwinia carotovora. The assay is described as follows: Antibacterial micro-dilution test (MIC), E.c. Format: cell-based. Conditions: Pectobacterium carotovorum, read-out: MIC E.c. On the procedure:
as §1
(§5) All strains were cultivated in Nutrient culture medium supplemented with 3% sucrose (SNA), and incubated at 27° C. The bacterial inoculum was produced in Mueller-Hinton (MH) culture medium in glass test tubes and incubated at 27° C. in an orbital shaker at 150 rpm in the dark for 24 hours. A stock solution of each molecule was prepared to obtain a concentration of 2000 mg/L, later they were diluted in a 96-well microplate with MH culture medium and thus obtain the different concentrations of […] of each molecule. The antibacterial activity of the molecules was determined by the method of micro-dilution of the substance to be tested. […]
(§6) Through the evaluation of absorbance at 600 nm in an Accu Reader M965 spectrophotometer, those treatments that were effective in inhibiting growth compared to the negative control were selected, to subsequently quantify the percentage of inhibition. The absorbances or optical density (O.D) were converted to percentage of antibacterial inhibition (PIAB) using the following formula: […]

Another assay has as its system Bacillus subtilis. The assay is described as follows: Antibacterial micro-dilution test (MIC), B.s. Format: cell-based. Conditions: read-out: MIC B.s. On the procedure: as §1, §2, §6
A further assay deals with E. carotovora. The experiment in a line: Membrane integrity by Sytox Green staining, E. carotovora. Conditions: 50 ug/mL, 3 hours of incubation, fluorescence microscope. Format: cell-based, Erwinia carotovora. On the procedure: FIG. 11: Effect of 2′, 4′ dihydroxychalcone on the integrity of the cell membrane of E. carotovora. The bacteria were incubated in a culture medium at 22 QC in the presence of 30% (v/v) ethanol (a), 5% methanol; 50 ug/mL of the compound against E. carotovora seen in bright field (b) and seen under fluorescence (c) for 3 hours of incubation.
(§7) Determination of the effect of compound 2 4′ dihydroxychalcone (compound No. 4) on the integrity of the membrane of Gram negative and Gram positive bacteria.
(§8) Because several studies have established that phenolic compounds destroy the bacterial membrane, the effect of the major compound […] (compound No. 4) present in the exudate of plants of the Adesmia genus was evaluated, which was attributes the antibacterial activity that they present against Pseudomonas syringae pv actinidiae (Psa). It was tested against Gram-negative bacteria of agricultural importance Erwinia carotovora by Sytox Green staining. […] In this way, through the observation of nuclei stained with Sytox in the fluorescence microscope (100×), it is evident that the mechanism of action of the compound against both the Gram positive bacteria S. aureus and Gram negative E. carotovora is the destruction of the plasma membrane (FIG. 11c).

A further assay concerns S. aureus. The experiment in a line: Membrane integrity by Sytox Green staining, S. aureus. It counts as cell-based. Conditions: 50 ug/mL, 3 hours of incubation, fluorescence microscope. The protocol:
as §7, §8

The subject of assay [3] is Pseudomonas syringae pv actinidiae (Psa) 190770. The assay is described as follows: In vivo antibacterial activity test in Kiwi seedlings, phytopathological evaluation. The following applies: 500 ug/mL. Also noted: species or system Kiwi A. chinensis. An excerpt: In vivo antibacterial activity tests of the compounds of the present invention, in Kiwi crops.
It is important to point out that the Chilean patent application 0881-2018 of the same inventors of the present invention, describes a procedure to prepare a composition obtained from resinous exudates of the aerial parts of plants of the genus Adesmia, to control in vitro and in vivo infections. in plant crops. In addition, methods for controlling infections in plant crops are described, which comprise applying said composition to crops infected with various microorganisms. […] For this, Kiwi A. chinensis seedlings from in vitro propagation were used. The bacterium Pseudomonas syringae pv actinidiae (Psa) 190770 used in the in vitro tests was used. The plants were kept in aseptic chambers with 50% relative humidity, under controlled temperature conditions (20° C.±2) and a photoperiod regimen of 12 hours of light and 12 hours of darkness. Both the application of the treatments and inoculation were applied in the summer season. The bacterial inoculum was sprayed on the surface of the leaves of the plants, which had been subjected to small wounds on the leaves. […] Control plants were only sprayed with sterile distilled water and kept isolated from the others treated with Psa.
(§9) The evaluations were made periodically to observe the symptoms of the plant (Table No. 4) and the samples were taken at the third and fourth week from the inoculation, in which the leaves were collected at the moment of beginning to see symptoms or in their defect a month after starting the trial, they were frozen in RNALater® and stored at −80° C. for RNA isolation.

In assay [4] the test system is Pseudomonas syringae pv actinidiae (Psa). The experiment in a line: Absolute quantification of Psa infecting kiwi plants by qRT-PCR. Format: in vivo, Kiwi A. chinensis. The following applies: leaves, 3-4 weeks after inoculation, replicate runs; listed as Treatment 3. On the procedure:
as §9
For this, the total RNA of the problem samples was isolated from 80 to 100 mg of tissue from the leaves of A. chinensis belonging to the applied treatments, which were extracted with the E.Z.N.A.® PLANT RNA Kit using the protocol for difficult samples described by the manufacturer and the concentration of the extracted material was quantified through the Nanodrop equipment. The qRT-PCR was performed using the AriaMx Realtime PCR System equipment, using the Takion Sybrgreen+One step converter kit and specific primers synthesized by IDT (Integrated DNA Technologies) (See Table 6).
The program conditions were 48° C. for 10 min, 95° C. for 3 min, followed by 40 cycles of 95° C. for 10 sec, alignment and extension at 60° C. for 50 sec; then the melting curves 95° C. for 30 sec., 65° C. for 30 sec., and 95° C. for 30 sec. […] The number of copies/ng of Total Psa RNA were calculated through the equation of the straight line provided by the equipment, which was analyzed with the standard curve included in each qRT-PCR run.
Background: Quantitative PCR measures a nucleic acid by following its amplification.

Assay [5] relates to Pseudomonas syringae syringae. The assay is described as follows: Antibacterial micro-dilution test (MIC), Pss. Format: cell-based. Conditions: MH medium, 27° C., 24 hours. On the procedure:
as §1, §5, §6

Where [6] appears, read: micro-dilution, MH medium, 27° C., 24 hours.

What is called MIC is the least concentration at which growth counts as inhibited. For the compound `CC(C)=CCc1cc(C(=O)CCc2ccccc2)c(O)cc1O` [Compound 1], the MIC was at least 400 µg/mL in assay [1] (24 h) and at least 200 µg/mL in assay [2] (24 h).

`CC(C)=CCc1c(O)cc(O)c2c1O[C@H](c1ccccc1)CC2=O` [Compound 2, glabranin]: in [1] (24 h), the MIC is at least 400 µg/mL.

For the compound `CC(C)=CCc1c(O)ccc(C(=O)/C=C/c2ccccc2)c1O` [Compound 3, isochordine], the MIC in assay [1] (24 h) is at least 1600 µg/mL.

For the compound `O=C(/C=C/c1ccccc1)c1ccc(O)cc1O` [Compound 4, 2′,4′-dihydroxychalcone], the MIC in [1] (24 h) was at least 200 µg/mL; in assay [2] (24 h) it was at least 50 µg/mL; in the assay with Erwinia carotovora (24 h), at least 10 µg/mL; in the assay on Bacillus subtilis (24 h) it was at least 10 µg/mL. The “effect on the integrity of the plasmatic membrane” value with E. carotovora and with S. aureus was “alteration of the plasmatic membrane was observed” each time. Also, the “in vivo inhibition of the disease caused by Psa in Kiwi cultures” value in [3] is recorded as “in vivo inhibition of the disease”. The “plants without visual symptoms of the disease (level 0, healthy plants)” value in assay [3] (preventive treatment) is listed as 60%. In assay [3] (preventive, sprayed 24 hours before inoculation), this compound returned a Percentage of incidence of 40%. Also, the “Level of Incidence according to category (Maximum value 3)” value in [3] (preventive, sprayed 24 hours before inoculation, damage scale 0-3 of Table No. 4) turned out to be 0.4. Besides, in [4], the Ct was 29.17 and 27.80 and 30.01.

On to `COc1ccc(C(=O)CCc2ccccc2)c(OC)c1` [Compound 9, 2′,4′-dimethoxydihydrochalcone], for which the MIC in [1] (setting [6]) is at least 400 µg/mL; in [2] (setting [6]) it was at least 1600 µg/mL; in assay [5] it was at least 50 µg/mL; in the assay on Erwinia carotovora (setting [6]), at least 10 µg/mL; in the assay with Bacillus subtilis (setting [6]) it was at least 10 µg/mL.

For `O=C(/C=C/c1ccccc1)c1c(O)cc(O)cc1O` [Compound 10, 2′,4′, 6′-trihydroxy chalcone], the MIC in assay [1] (setting [6]) is at least 50 µg/mL; in [2] (setting [6]), at least 50 µg/mL; in assay [5], at least 50 µg/mL; with Bacillus subtilis (setting [6]), at least 10 µg/mL.
